The record followed here is patent US9670223B2, “Compounds with super-aspirin effects” (SOLVOTRIN THERAPEUTICS LTD., priority 2011, dated 2017).

Entries after “also recorded” stand apart in the source; their conditions may differ.

The term IC50 denotes the point on the concentration scale where inhibition reaches its midpoint.

In data set [1] the test system is platelet rich plasma (PRP). Nature of the data set: ADP-induced platelet aggregation in PRP. The data set is classed as cell-based, human. Here is the method: (§1) PRP and WP (2.5×10^8 platelets ml^−1) were prepared from blood. Briefly 36 ml whole blood was collected into 4 ml of 3.15% sodium citrate; this was centrifuged at 250 ¥g for 20 min (with gentle acceleration and deceleration). At this point PRP, which had separated from white blood cells and red blood cells, was gently removed. When WP were required this PRP was centrifuged at 700 g for 10 min (with gentle acceleration and deceleration) in the presence of prostacyclin. The platelet-poor plasma (PPP) was removed and the platelet pellet was washed three times with Tyrode's buffer, before being re-suspended in Tyrode's buffer to a concentration of 2.5 ¥108 platelets/ml.
(§2) Platelet aggregation was measured by light aggregometry. […] Aggregation was initiated by the addition of agonists, and monitored by Aggro-Link software for at least 6 min.
(§3) To study the aggregatory potency of ADP, the concentration-response (0.3-10 μM) curves were generated. Collagen at different concentrations (2-5 μg/ml) was also used to induce platelet aggregation. Submaximal concentrations of agonists, i.e. the concentrations that gave approximately 95% of the maximal aggregation were used to study the effects of inhibitors of aggregation. Aspirin and aspirin prodrugs was incubated for various intervals prior to the addition of aggregating agents.
(§4) Eserine (in DMSO, 10 μM, giving a final concentration≦0.25% DMSO, which pilot studies had determined not to affect platelet aggregation) was preincubated with PRP or WP for 5 min in the aggregometer with stirring at 900 r.p.m. before the addition of test compounds (ST0701-05), which were incubated in PRP or WP for a further 10 min prior to the addition of an agonist (10 μM ADP or 5 μg/ml Collagen) to induce platelet aggregation.
1H-[1,2,4]Oxadiazolo[4,3-a]quinoxalin-1-one (ODQ, dissolved in 100% DMSO, used at a final concentration of 10 μM, which gave a final concentration not more than 0.25% DMSO) was preincubated with PRP or WP for 5 min in the aggregometer with stirring at 900 r.p.m. before the addition of test compounds (ST0701-05), which were incubated in PRP or WP for a further 10 min prior to the addition of an agonist (10 μM ADP or 5 μg/ml collagen) to induce platelet aggregation.
Eserine (10 μM) was incubated with PRP for 5 min in the aggregometer with stirring at 900 r.p.m. before the addition of test compound ST0702 salicylate (500 μM), which was incubated in PRP for a further 10 min prior to the addition of the agonist ADP (10 μM) to induce platelet aggregation.

A further data set concerns HT1080 cells. Nature of the data set: Tumour cell-induced platelet aggregation (TCIPA), static conditions, HT1080. Conditions: 500 μM. The data set is classed as cell-based, human. Here is the method:
Three human tumor cell lines, 59M ovarian adenocarcinoma, Caco-2 colon adenocarcinoma and HT1080 fibrocarcinoma cells, were obtained from the European Cell Culture Collection. Cell lines were cultured as monolayers in 75 ml culture flasks at 37° C. in a humidified atmosphere with 5% CO2. 59M cells and HT1080 were cultured in Dulbecco's […] (DMEM) supplemented with 10% fetal bovine serum (FBS) and gentamycin (0.05 mg/ml), penicillin (0.06 mg/ml), and streptomycin (0.01 mg/ml). Caco-2 cell line was cultured in Minimum Essential Medium (MEM) supplemented with 20% FBS and the same antibiotics as above. The cells were supplied with fresh medium and subcultured three times each week.
Washed platelet suspensions (2.5×10^11 platelets 1^−1) were prepared from blood an mixed with the anticoagulant sodium citrate (0.315% final concentration).
The interactions between platelets and tumor cells were measured by light aggregometry (Alonso-Escolano et al., 2004; Jurasz et al., 2001b; Radomski et al., 1991). Briefly, washed platelet samples (2.5×10^8/ml) were placed in an eight channel PAP 8 aggregometer (BIO/DATA CORPORATION, Horsham, Pa., U.S.A.) and incubated for 10 min at 37° C., with stirring at 900 r.p.m., prior to the addition of aggregating agents. […] TCIPA was initiated by the addition of cancer cells, and monitored by Aggro-Link software for at least 30 min. For experiments using inhibitors, aggregation was initiated after 10 min preincubation with these compounds.
To study the ability of the aspirin pro-drugs to inhibit TCIPA in WP cancer cell lines such as HT1080 cells (2×10^5/ml), CaCo2 cells (1.5×10^3/ml) or 59M cells (1×10^3/ml) were used in the presence or absence of aspirin nicotinate (ST0702), ISAS, orthonitrate and metanitrate at 300 and 500 μM. Platelet aggregation was initiated in washed platelets (WP) using HT1080 cells (2×10^5/ml), CaCo2 cells (1.5×10^3/ml) or 59M cells (1×10^3/ml). In addition, regular aspirin (300 and 500 uM) was used as control. Results were expressed in percent changes in maximal light transmission, with 100% representing light transmission of platelet medium alone. ST0702 is hydrolyzed by plasma esterases along two pathways liberating both aspirin and 5-nicotinate salicylate (ST0702 salicylate)(metabolite). The latter is further processed to isosorbide-5-nicotinate and eventually to nicotinic acid. The orthonitrate and metanitrate compounds liberate aspirin and nitric oxide (NO). ISAS meanwhile is hydrolysed to aspirin and salicylic acid. Aspirin (300 and 500 μM) was used in control experiments. Results were expressed in percent changes in maximal light transmission, with 100% representing light transmission of platelet medium alone. Further experiments were performed with ST0702 salicylate (500 μM).

The subject of data set [2] is 59M cells. Kind of data set: Flow-mediated TCIPA using an ultrasound standing wave trap. It is filed as cell-based, human. Conditions: 500 μM, 59M cell cluster. The text has this:
The ultrasound trap had three essential features: a transducer (Ferroperm, Kvistgard, Denmark) in a housing of radial symmetry, an aqueous phase and a reflector that provided optical access from above. The trap was driven with a function generator (Hewlett Packard 33120A, UK). Microscopic observation occurred with a fast, high-resolution XM10 camera (Soft Imaging System, SIS, GmbH) mounted on an Olympus BX51M reflection epi-fluorescence microscope. Images were captured by a standard PC equipped with the Cell-D image acquisition software (Soft Imaging System, SIS, GmbH).
The experimental procedure was as follows: 59M cells were introduced into the trap, the acoustic field (2.13 MHz, 0.85 MPa) was initiated and cell clusters were allowed to form. Clusters remained levitated in suspension for 10 min. Washed platelets (2.5×10^8/ml) were introduced into the trap at a flow rate of 3 μl/min. Perfusion of washed platelets around the cluster proceeded following initial adhesion of platelets to the periphery of the cluster.
To study the effect of aspirin and aspirin prodrugs in TCIPA, washed platelets were pre-incubated for 10 min at room temperature with the inhibitors: aspirin, nicotinate, ISAS, ISMNA, ortho and meta (all at a concentration of 500 μM), prior to their introduction into the ultrasound trap. […] The cell cluster-platelet aggregate remained under microscopic observation for further 10 min (the upper time limit established in the current study) under continuous flow conditions. Further experiments were performed with ST0702 salicylate (500 μM).

In another data set the test system is washed platelet samples. Nature of the data set: Collagen-induced platelet aggregation in the TCIPA studies (washed platelets). The conditions noted are these: collagen 2 μg/ml (FIG. 16B). It is filed as cell-based, human.
Data set [3] can be described thus: In-vitro half life of the ST0702 metabolite. It is filed as in vitro ADME.
A further data set has as its system washed platelets (WP). Kind of data set: Collagen-induced platelet aggregation in washed platelets (light aggregometry). The data set is classed as cell-based, human. Also noted: IC50: unit of the concentration uncertain. The method, then: as §1, §2, §3
To study the involvement of plasma BuChE in the activation of ST0701, purified BuChE (3 U/ml) was incubated with WP for 5 min in the aggregometer with stirring at 900 r.p.m. before the addition of the test compounds ST0701 which was incubated with the WP for a further 10 min, prior to the addition of collagen (5 ug/ml).
as §4
Phenylmethylsulphonylfluoride (PMSF) 20, 50 and 100 μM dissolved in EtOH (<0.2% EtOH, which pilot studies had determined not to affect platelet aggregation) was preincubated in WP in the aggregometer for 5 min with stirring at 900 r.p.m. before the addition of test compound ST0702 to the WP, which was further incubated for 10 min prior to the addition of collagen (2 μg/ml) to induce platelet aggregation.

Data set [4] relates to platelet rich plasma (PRP). Kind of data set: Collagen-induced platelet aggregation in platelet rich plasma (light aggregometry). The conditions noted are these: 200 μM in PRP, collagen 5 μg/ml. It is filed as cell-based, human. The method, then:
as §1, §2, §3, §4

The subject of data set [5] is 59M cells. Nature of the data set: Tumour cell-induced platelet aggregation (TCIPA), static conditions, 59M. The data set is classed as cell-based, human. Conditions: static, WP, 300 and 500 μM, 59M 1×10^3/ml; listed as ISAS. An excerpt: ISAS meanwhile is hydrolysed to aspirin and salicylic acid. […] The structure of platelet-tumor cell aggregates was studied using phase-contrast microscopy (Alonso-Escolano et al., 2004; Jurasz et al., 2001). […] Aliquots of each sample were then taken for phase-contrast microscopy examination using an Olympus CKX41 microscope (Olympus America Inc., […].). Photomicrographs were captured using a digital camera and MicroFire (Olympus America Inc.) software (Alonso-Escolano et al., 2004; Jurasz et al., 2001).

The test system of data set [6] is P-selectin. Kind of data set: Flow cytometry of platelet P-selectin during TCIPA induced by 59M cells. The data set is classed as cell-based, human. Conditions: 300 μM. In general terms: A flow cytometer gives signals particle by particle.
Another data set has as its system GPIIb/IIIa. Kind of data set: Flow cytometry of activated GPIIb/IIIa on platelets after collagen stimulation. It is filed as cell-based, human. The conditions noted are these: 60 μM. The method, then: (§5) In order to analyze receptor expression on the surface of individual platelets and to minimize platelet activation caused by sample preparation procedures, no stirring or vortexing steps were used. The abundance of activated GPIIb/IIIa and P-selectin on the surface of platelets in the presence and absence of inhibitors was measured by flow cytometry. Platelet samples were first activated with agonists either collagen or ADP. When platelet aggregation reached 50% maximal light transmission the reaction was terminated by 10-fold dilution with physiologic saline. Resting platelets were used as control. […] The activated GPIIb/IIIa platelet receptors were measured using PAC-1 monoclonal antibody at the same concentration as above. […] Following incubation, samples were diluted in FACS Flow fluid and analyzed within 5 min using a BD FACSArray (BD Biosciences, Oxford, UK). […] The instrument was set up to measure the size (forward scatter), granularity (side scatter) and cell fluorescence. […] Antibody binding was measured by analyzing individual platelets for fluorescence. The mean fluorescence intensity was determined after correction for cell autofluorescence. For each sample, the fluorescence was analyzed using a logarithmic scale. Fluorescence histograms were obtained for 10,000 individual events. […]

The test system of data set [7] is P-selectin. Nature of the data set: Flow cytometry of P-selectin on platelets after collagen stimulation. It is filed as cell-based, human. Conditions: 60 μM. Here is the method:
as §5

In the case of `O=C(O[C@@H]1CO[C@H]2[C@@H]1OC[C@@H]2OC(=O)c1ccccc1O)c1cccnc1` [ST0702 salicylate, isosorbide-2-salicylate-5-nicotinate], the “inhibition of ADP-induced aggregation in PRP” value in [1] (500 μM, ADP 10 μM) is reported as “inhibited ADP-induced aggregation”. Further, the “inhibition of ADP-induced aggregation in PRP in the presence of eserine” value in data set [1] (500 μM, eserine 10 μM) was “became significant”. Moreover, in the data set on HT1080 cells, the “inhibition of TCIPA in response to HT1080, no flow” value is listed as “inhibit TCIPA”. Besides, in the data set on 59M cells [2], the “inhibition of TCIPA under flow conditions (platelet-tumour cell disruption)” value is “did not inhibit TCIPA under flow conditions”. Also, the “inhibition of collagen-induced platelet aggregation” value with washed platelet samples is listed as “did not inhibit collagen-induced platelet aggregation”. Moreover, in data set [3], the half life in-vitro entry was “very short”.

In the case of `CC(=O)Oc1ccccc1C(=O)OC1COC2C(OC(=O)c3ccccc3O)COC12` (stereo not drawn) [ST0701, isosorbide-2-aspirinate-5-salicylate], the “inhibitory actions in WP after addition of human BuChE purified from plasma” value in the data set with washed platelets (WP) (BuChE 3 U/ml, collagen 5 μg/ml) was “rescued”. Also, in the data set on washed platelets (WP) (at 500 μM, collagen 5 μg/ml), the “inhibition of collagen induced aggregation in WP” value was found to be 50%. The same molecule yielded an IC50 in the data set on washed platelets (WP) (inhibition of platelet aggregation in response to collagen (5 (unit uncertain)), washed platelets) of 200 µM. Besides, in data set [4], the “inhibition of aggregation at 2 min preincubation” value turned out to be 40% and the “preincubation time at which inhibition is maximal” value is listed as 5 min. The “inhibition of ADP (10 μM) induced aggregation in PRP, comparison in words” value in data set [1] (ADP 10 μM, PRP) is “more efficacious than aspirin”. The “effect of ODQ pretreatment on inhibition of ADP induced aggregation” value in data set [1] (ODQ 10 μM, compounds 100 μM, ADP 10 μM, PRP) is “increased the inhibition”. For the same molecule, the “inhibition of TCIPA induced by 59M” value in the data set with 59M cells [5] is given as “able to inhibit; also recorded: inhibited”. In addition, the “59M-mediated increase in platelet surface P-selectin” value in the data set on P-selectin [6] is listed as “failed to prevent”. Further, in the data set on GPIIb/IIIa, the “activation of GPIIb/IIIa in PRP” value is reported as “significantly suppressed”. For the same molecule, the “translocation of P-selectin in PRP” value in the data set on P-selectin [7] (PRP) is “significantly suppressed”. For the same molecule, in the data set with P-selectin [7] (WP), the “translocation of P-selectin in WP” value is “not in WP”.
